In patent publication US10214531B2 (Institute for Drug Discovery, LLC, priority 2013, dated 2019):
Counter-ions that a name gives are not always drawn.

Biological target: recombinant human AMCase (Homo sapiens, UniProt Q9BZP6)
Assay: Human AMCase Activity Assay
Type: biochemical
Conditions: recombinant hAMCase, 4-methylumbelliferyl chitobioside substrate, citrate buffer pH 5.2, 37° C., 60 minutes; read-out: Activity (IC50 value key)
Description: Human AMCase Activity Assay
The assay was run in the 96-well plate format, each reaction in the total volume of 100 μl. 4-Methylumbelliferyl B-D-N,N′ diacetylchitobioside hydrate was used as a substrate for the enzyme. Upon hydrolysis by AMCase, the substrate releases 4-methylumbelliferyl (4MU), when ionized in basic pH, emits fluorescence of 460 nm.
Briefly, 40 μl of a substrate was added to each well, followed by 10 μl of compound dilution and 50 μl of hAMCase recombinant enzyme solution. The reaction was carried out in citrate buffer, pH 5.2, in the dark, at 37° C. for 60 minutes with shaking.

recombinant human AMCase, sequence (Q9BZP6 22-476): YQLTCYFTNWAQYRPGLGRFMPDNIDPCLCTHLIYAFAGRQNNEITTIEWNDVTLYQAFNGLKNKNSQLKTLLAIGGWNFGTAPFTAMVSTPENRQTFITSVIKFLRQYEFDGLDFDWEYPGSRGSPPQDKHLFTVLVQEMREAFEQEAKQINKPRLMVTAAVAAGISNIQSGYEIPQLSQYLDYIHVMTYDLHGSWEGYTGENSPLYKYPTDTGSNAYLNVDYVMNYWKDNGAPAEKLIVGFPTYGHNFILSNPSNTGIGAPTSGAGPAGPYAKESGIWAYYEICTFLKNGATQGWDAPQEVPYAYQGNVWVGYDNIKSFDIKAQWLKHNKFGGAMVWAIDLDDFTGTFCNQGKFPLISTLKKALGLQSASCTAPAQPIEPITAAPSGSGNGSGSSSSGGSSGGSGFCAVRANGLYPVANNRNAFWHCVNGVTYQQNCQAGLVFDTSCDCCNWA

Structure (SMILES): Nc1n[nH]c(N2CCN(CCOc3ccccc3F)CC2)n1 [Example 85, 5-(4-(2-(2-fluorophenoxy)ethyl)piperazin-1-yl)-1H-1,2,4-triazol-3-amine]
- IC50: 10 to 100 µM

Structure (SMILES): Nc1n[nH]c(N2CCN(CCOc3cccc(Cl)c3)CC2)n1 [Example 86, 5-(4-(2-(3-chlorophenoxy)ethyl)piperazin-1-yl)-1H-1,2,4-triazol-3-amine]
- IC50: 10 to 100 µM

Structure (SMILES): Cc1cccc(Cl)c1OCCN1CCN(c2nc(N)n[nH]2)CC1 [Example 87, 5-(4-(2-(2-chloro-6-methylphenoxy)ethyl)piperazin-1-yl)-1H-1,2,4-triazol-3-amine]
- IC50: 10 to 100 µM

Structure (SMILES): Nc1n[nH]c(N2CCC(NCCc3ccc(Cl)cc3)CC2)n1 [Example 88, 1-(3-amino-1H-1,2,4-triazol-5-yl)-N-(4-chlorophenethyl)piperidin-4-amine]
- IC50: 1 to 10 µM

Structure (SMILES): C[C@H](CN1CCN(c2nc(N)n[nH]2)CC1)Oc1ccc(Br)cc1 [Example 90, (R)-5-(4-(2-(4-bromophenoxy)propyl)piperazin-1-yl)-1H-1,2,4-triazol-3-amine]
- IC50: 0.1 to 1 µM

Structure (SMILES): CN(Cc1ccc(Cl)cc1)C(=O)C1(C)CCN(c2nc(N)n[nH]2)CC1 [Example 91, 1-(3-amino-1H-1,2,4-triazol-5-yl)-N-(4-chlorobenzyl)-N,4-dimethyl piperidine-4-carboxamide]
- IC50: > 100 µM

Structure (SMILES): CC(C)(C)CCN(CCc1ccc(Cl)cc1)C1CCN(c2nc(N)n[nH]2)CC1 [Example 93, 1-(3-amino-1H-1,2,4-triazol-5-yl)-N-(4-chlorophenethyl)-N-(3,3-dimethylbutyl) piperidin-4-amine]
- IC50: < 0.1 µM

Structure (SMILES): CC(C)(C)CN(CCc1ccc(Cl)cc1)C1CCN(c2nc(N)n[nH]2)CC1 [Example 94, 1-(3-amino-1H-1,2,4-triazol-5-yl)-N-(4-chlorophenethyl)-N-neopentyl-piperidin-4-amine dihydrochloride]
- IC50: < 0.1 µM

Structure (SMILES): Nc1n[nH]c(N2CCC(N(CCc3ccc(Br)cc3)Cc3ccccc3Cl)CC2)n1 [Example 98, 1-(3-amino-1H-1,2,4-triazol-5-yl)-N-(4-bromophenethyl)-N-(2-chlorobenzyl) piperidin-4-amine]
- IC50: < 0.1 µM

Structure (SMILES): Nc1n[nH]c(N2CCC(N(CCc3ccc(Cl)cc3)Cc3cccc(CO)c3)CC2)n1 [Example 100, (3-(((1-(3-amino-1H-1,2,4-triazol-5-yl)piperidin-4-yl)(4-chlorophenethyl)amino)methyl)phenyl)methanol]
- IC50: < 0.1 µM

Structure (SMILES): Cc1ccc(CN(CCc2ccc(Cl)cc2)C2CCN(c3nc(N)n[nH]3)CC2)cc1 [Example 102, 1-(3-amino-1H-1,2,4-triazol-5-yl)-N-(4-chlorophenethyl)-N-(4-methylbenzyl) piperidin-4-amine]
- IC50: < 0.1 µM

Structure (SMILES): C[C@@H](c1ccccc1)N(CCc1ccc(Cl)cc1)C1CCN(c2nc(N)n[nH]2)CC1 [Example 103, (S)-1-(3-amino-1H-1,2,4-triazol-5-yl)-N-(4-chlorophenethyl)-N-(1-phenylethyl) piperidin-4-amine]
- IC50: 0.1 to 1 µM

Structure (SMILES): Nc1n[nH]c(N2CCC(N(CCc3ccc(Cl)cc3)Cc3ccc(C(F)(F)F)cc3)CC2)n1 [Example 104, 1-(3-amino-1H-1,2,4-triazol-5-yl)-N-(4-chlorophenethyl)-N-(4-(trifluoromethyl)benzyl)piperidin-4-amine]
- IC50: < 0.1 µM

Structure (SMILES): Nc1n[nH]c(N2CCC(N(CCc3ccc(Br)cc3)Cc3cccc4ccncc34)CC2)n1 [Example 105, 1-(3-amino-1H-1,2,4-triazol-5-yl)-N-(4-bromophenethyl)-N-(isoquinolin-8-ylmethyl) piperidin-4-amine]
- IC50: < 0.1 µM

Structure (SMILES): Nc1n[nH]c(N2CCC(N(CCc3ccc(Cl)cc3)[C@@H](CO)c3ccccc3)CC2)n1 [Example 107, (R)-2-((1-(3-amino-1H-1,2,4-triazol-5-yl)piperidin-4-yl)(4-chlorophenethyl)amino)-2-phenylethan-1-ol]
- IC50: 0.1 to 1 µM

Structure (SMILES): Nc1n[nH]c(N2CCC(N(CCc3ccc(Cl)cc3)Cc3ccncc3)CC2)n1 [Example 108, 1-(3-amino-1H-1,2,4-triazol-5-yl)-N-(4-chlorophenethyl)-N-(pyridin-4-ylmethyl) piperidin-4-amine]
- IC50: < 0.1 µM

Structure (SMILES): COC[C@@H](c1ccccc1)N(CCc1ccc(Cl)cc1)C1CCN(c2nc(N)n[nH]2)CC1 [Example 109]
- IC50: 10 to 100 µM

Structure (SMILES): Nc1nc(N2CCC(N(CCc3ccc(Cl)cc3)Cc3cccc(Cl)c3)CC2)n[nH]1 [Example 110, 1-(3-amino-1H-1,2,4-triazol-5-yl)-N-(3-chlorobenzyl)-N-(4-chlorophenethyl) piperidin-4-amine dihydrochloride]
- IC50: < 0.1 µM

Structure (SMILES): Nc1n[nH]c(N2CCC(N(CCc3ccc(Cl)cc3)Cc3ccc(-c4ccccc4)cc3)CC2)n1 [Example 111, N-([1,1′-biphenyl]-4-ylmethyl)-1-(3-amino-1H-1,2,4-triazol-5-yl)-N-(4-chlorophenethyl) piperidin-4-amine]
- IC50: < 0.1 µM

Structure (SMILES): Nc1n[nH]c(N2CCC(N(CCc3ccc(Cl)cc3)Cc3ccc4ccccc4c3)CC2)n1 [Example 112, 1-(3-amino-1H-1,2,4-triazol-5-yl)-N-(4-chlorophenethyl)-N-(naphthalen-2-ylmethyl) piperidin-4-amine]
- IC50: < 0.1 µM

Structure (SMILES): Nc1n[nH]c(N2CCC(N(CCc3ccc(Cl)cc3)Cc3ccccc3C(F)(F)F)CC2)n1 [Example 113, 1-(3-amino-1H-1,2,4-triazol-5-yl)-N-(4-chlorophenethyl)-N-(2-(trifluoromethyl)benzyl)piperidin-4-amine]
- IC50: < 0.1 µM

Structure (SMILES): Nc1n[nH]c(N2CCC(N(CCc3ccc(Cl)cc3)Cc3ccccc3-c3ccccc3)CC2)n1 [Example 114, N-([1,1′-biphenyl]-2-ylmethyl)-1-(3-amino-1H-1,2,4-triazol-5-yl)-N-(4-chlorophenethyl) piperidin-4-amine]
- IC50: < 0.1 µM

Structure (SMILES): Nc1n[nH]c(N2CCC(N(CCc3ccc(Cl)cc3)Cc3ccc(-c4ccn[nH]4)cc3)CC2)n1 [Example 115, N-(4-(1H-pyrazol-5-yl)benzyl)-1-(3-amino-1H-1,2,4-triazol-5-yl)-N-(4-chlorophenethyl) piperidin-4-amine dihydrochloride]
- IC50: < 0.1 µM

Structure (SMILES): Nc1n[nH]c(N2CCC(N(CCc3ccc(Cl)cc3)Cc3cnc4ccccc4n3)CC2)n1 [Example 116, 1-(3-amino-1H-1,2,4-triazol-5-yl)-N-(4-chlorophenethyl)-N-(quinoxalin-2-ylmethyl) piperidin-4-amine dihydrochloride]
- IC50: 0.1 to 1 µM

Structure (SMILES): C[C@H](c1ccccc1)N(CCc1ccc(Cl)cc1)C1CCN(c2nc(N)n[nH]2)CC1 [Example 118, (R)-1-(3-amino-1H-1,2,4-triazol-5-yl)-N-(4-chlorophenethyl)-N-(1-phenylethyl)piperidin-4-amine]
- IC50: < 0.1 µM

Structure (SMILES): Nc1n[nH]c(N2CCC(N(CCc3ccc(Cl)cc3)Cc3ccncc3F)CC2)n1 [Example 119, 1-(3-amino-1H-1,2,4-triazol-5-yl)-N-(4-chlorophenethyl)-N-((3-fluoropyridin-4-yl)methyl)piperidin-4-amine]
- IC50: < 0.1 µM

Structure (SMILES): Nc1n[nH]c(N2CCC(N(CCc3ccc(Cl)cc3)Cc3ccc(F)cc3)CC2)n1 [Example 123, 1-(3-amino-1H-1,2,4-triazol-5-yl)-N-(4-chlorophenethyl)-N-(4-fluorobenzyl)piperidin-4-amine]
- IC50: < 0.1 µM

Structure (SMILES): Cc1ccccc1CN(CCc1ccc(Cl)cc1)C1CCN(c2nc(N)n[nH]2)CC1 [Example 125, 1-(3-amino-1H-1,2,4-triazol-5-yl)-N-(4-chlorophenethyl)-N-(2-methylbenzyl)piperidin-4-amine]
- IC50: < 0.1 µM

Structure (SMILES): Nc1n[nH]c(N2CCC(N(CCc3ccc(Cl)cc3)Cc3ccc(Cl)c(C(F)(F)F)c3)CC2)n1 [Example 126, 1-(3-amino-1H-1,2,4-triazol-5-yl)-N-(4-chloro-3-(trifluoromethyl)benzyl)-N-(4-chlorophenethyl)piperidin-4-amine]
- IC50: < 0.1 µM

Structure (SMILES): Nc1n[nH]c(N2CCC(N(CCc3ccc(Cl)cc3)Cc3ccccc3Br)CC2)n1 [Example 127, 1-(3-amino-1H-1,2,4-triazol-5-yl)-N-(2-bromobenzyl)-N-(4-chlorophenethyl)piperidin-4-amine]
- IC50: < 0.1 µM

Structure (SMILES): Nc1n[nH]c(N2CCC(N(CCc3ccc(Br)cc3)Cc3cccc4ccccc34)CC2)n1 [Example 129, 1-(3-amino-1H-1,2,4-triazol-5-yl)-N-(4-bromophenethyl)-N-(naphthalen-1-ylmethyl)piperidin-4-amine]
- IC50: < 0.1 µM

Structure (SMILES): CN(C1CCN(c2nc(N)n[nH]2)CC1)C(CO)Cc1ccc(Cl)cc1 (stereo not drawn) [Example 130, 2-((1-(3-amino-1H-1,2,4-triazol-5-yl)piperidin-4-yl)(methyl)amino)-3-(4-chlorophenyl)propan-1-ol dihydrochloride]
- IC50: 0.1 to 1 µM

Structure (SMILES): CN(CCc1cccnc1)C1CCN(c2nc(N)n[nH]2)CC1 [Example 131, 1-(3-amino-1H-1,2,4-triazol-5-yl)-N-methyl-N-(2-(pyridin-3-yl)ethyl)piperidin-4-amine dihydrochloride]
- IC50: 10 to 100 µM

Structure (SMILES): Nc1nc(N2CCC(N(CCc3ccc(Cl)cc3)Cc3ccc(Cl)cc3)CC2)n[nH]1 [Example 134, 1-(3-amino-1H-1,2,4-triazol-5-yl)-N-(4-chlorobenzyl)-N-(4-chlorophenethyl)piperidin-4-amine]
- IC50: < 0.1 µM

Structure (SMILES): Nc1n[nH]c(N2CCC(N(CCc3ccc(Cl)cc3)[C@H](CO)c3ccccc3)CC2)n1 [Example 135, (S)-2-((1-(3-amino-1H-1,2,4-triazol-5-yl)piperidin-4-yl)(4-chlorophenethyl)amino)-2-phenylethan-1-ol]
- IC50: < 0.1 µM

Structure (SMILES): CN(Cc1nc2ccccc2[nH]1)C1CCN(c2nc(N)n[nH]2)CC1 [Example 136, N-((1H-benzo[d]imidazol-2-yl)methyl)-1-(3-amino-1H-1,2,4-triazol-5-yl)-N-methylpiperidin-4-aminetrihydrochloride]
- IC50: > 100 µM
